# ChEMBL document CHEMBL2375353, “Efficient induction of apoptosis in HeLa cells by a novel cationic porphycene photosensitizer” (Eur J Med Chem, 2013)
# Active and inactive are the calls of the source. The rule behind the calls is not given here.
# What was measured:
# HeLa [1] = assay: Induction of apoptosis in human HeLa cells assessed as nuclear fragmentation at 0.5 uM incubated for 18 hrs prior to red light irradiation measured after 3 hrs by Hoechst-33258 staining; assay type: functional, cell-based
# HeLa [2] = assay: Phototoxicity against human HeLa cells at 1 uM incubated for 18 hrs prior to 1.2 J/cm'2 red light irradiation by MTT assay; assay type: functional, cell-based
# HeLa [3] = assay: Induction of necrosis in human HeLa cells at 0.5 uM incubated for 18 hrs prior to red light irradiation measured after 6 to 24 hrs by Hoechst-33258 staining; assay type: functional, cell-based
# HeLa [4] = assay: Induction of apoptosis in human HeLa cells assessed as microtubule alteration at 0.75 to 0.5 uM after 18 hrs by […]; assay type: cell-based
# HeLa [5] = assay: Induction of apoptosis in human HeLa cells assessed as membrane bubble at 0.5 uM incubated for 18 hrs followed by red light irradiation measured after 6 hrs by immunostaining assay; assay type: functional, cell-based
# HeLa [6] = assay: Induction of apoptosis in human HeLa cells assessed as microtubule alteration at 0.75 uM incubated for 18 hrs followed by red light irradiation after 3 to 24 hrs by […]; assay type: functional, cell-based
# [7] = Darktoxicity against human HeLa cells assessed as cell survival at > 0.5 microM after 18 hrs by MTT assay; assay type: cell-based; conditions: read-out: Activity
# HeLa [8] = assay: Induction of ROS generation in human HeLa cells assessed as cell survival at 0.5 uM incubated for 18 hrs followed by NaN3 addition 2 hrs prior to red light irradiation measured after 24 hrs by MTT assay; assay type: functional; conditions: light or radiation study, read-out: Activity
# HeLa [9] = assay: Induction of apoptosis in human HeLa cells assessed as volume reduction at 0.5 uM incubated for 18 hrs prior to red light irradiation measured after 3 hrs by neutral red staining; assay type: functional, cell-based
# HeLa [10] = assay: Induction of apoptosis in human HeLa cells at 0.5 uM incubated for 18 hrs prior to red light irradiation measured after 24 hrs; assay type: functional
# HeLa [11] = assay: Induction of necrosis in human HeLa cells at 0.5 to 0.75 uM incubated for 18 hrs by Hoechst-33258 staining; assay type: cell-based
# HeLa [12] = assay: Induction of apoptosis in human HeLa cells assessed as trypsin-mediated cell detachment at 0.5 to 0.75 uM incubated for 18 hrs prior to red light irradiation by hemocytometer; assay type: functional, cell-based
# HeLa [13] = assay: Induction of apoptosis in human HeLa cells assessed as relocalization of proapoptotic Bax protein within mitochondria at 0.75 to 0.5 uM after 18 hrs by indirect immunofluorescence; assay type: cell-based
# [14] = Cytotoxicity against human HeLa cells assessed as cell viability after 18 hrs by MTT assay in presence of 10 % FCS; assay type: cell-based; conditions: read-out: Activity
# HeLa [15] = assay: Phototoxicity against human HeLa cells assessed as cell viability at > 0.5 uM incubated for 18 hrs prior to 3.6 J/cm'2 red light irradiation by MTT assay; assay type: functional
# HeLa [16] = assay: Induction of necrosis in human HeLa cells assessed as chromatin condensation at 0.75 uM incubated for 18 hrs prior to red light irradiation measured after 1 hr by Hoechst-33258 staining; assay type: functional, cell-based
# HeLa [17] = assay: Drug uptake in human HeLa cells at 0.5 uM after 18 hrs by flow cytometry; assay type: ADME, cell-based
# HeLa [18] = assay: Induction of necrosis in human HeLa cells at 0.5 uM incubated for 18 hrs prior to red light irradiation measured after 6 to 24 hrs by neutral red staining; assay type: functional, cell-based
# [19] = Cytotoxicity against human HeLa cells assessed as cell viability after 18 hrs by MTT assay in presence of 1 % FCS; assay type: cell-based; conditions: read-out: Activity
# HeLa [20] = assay: Induction of apoptosis in human HeLa cells assessed as reduction in F-actin expression at 0.5 uM incubated for 18 hrs followed by red light irradiation measured after 3 hrs by immunostaining assay; assay type: functional, cell-based
# HeLa [21] = assay: Induction of apoptosis in human HeLa cells at 0.5 uM incubated for 18 hrs prior to red light irradiation measured after 6 to 24 hrs by neutral red staining; assay type: functional, cell-based
# HeLa [22] = assay: Induction of apoptosis in human HeLa cells assessed as reduction in vinculin expression at 0.5 uM incubated for 18 hrs followed by red light irradiation measured after 24 hrs by immunostaining assay; assay type: functional, cell-based
# HeLa [23] = assay: Induction of apoptosis in human HeLa cells assessed as membrane blebbing at 0.5 uM incubated for 18 hrs prior to red light irradiation measured after 6 hrs by phase contrast microscopy; assay type: functional, cell-based
# HeLa [24] = assay: Darktoxicity against human HeLa cells at 0.75 uM after 18 hrs by MTT assay; assay type: cell-based
# HeLa [25] = assay: Induction of apoptosis in human HeLa cells assessed as reduction in vinculin expression at 0.75 to 0.5 uM incubated for 18 hrs by immunostaining assay; assay type: cell-based
# HeLa [26] = assay: Induction of necrosis in human HeLa cells at 0.75 uM incubated for 18 hrs followed by red light irradiation by Hoechst-33258 staining; assay type: functional, cell-based
# HeLa [27] = assay: Induction of necrosis in human HeLa cells assessed as breaking of giant bubble at 0.75 uM incubated for 18 hrs prior to red light irradiation measured after 6 hrs by phase contrast microscopy; assay type: functional, cell-based
# HeLa [28] = assay: Induction of apoptosis in human HeLa cells assessed as chromatin condensation at 0.5 uM incubated for 18 hrs prior to red light irradiation measured after 3 hrs by Hoechst-33258 staining; assay type: functional, cell-based
# HeLa [29] = assay: Induction of apoptosis in human HeLa cells assessed as swollen mitochondria at 0.5 uM incubated for 18 hrs prior to red light irradiation measured after 3 hrs by immunofluorescence method; assay type: functional, cell-based
# HeLa [30] = assay: Induction of necrosis in human HeLa cells assessed as cellular damage at 0.75 uM incubated for 18 hrs followed by red light irradiation measured after 24 hrs; assay type: functional, cell-based
# HeLa [31] = assay: Induction of apoptosis in human HeLa cells assessed as microtubule alteration at 0.5 uM incubated for 18 hrs followed by red light irradiation after 6 to 24 hrs by […]; assay type: functional, cell-based
# HeLa [32] = assay: Induction of apoptosis in human HeLa cells at 0.5 uM incubated for 18 hrs prior to red light irradiation measured after 6 to 24 hrs by Hoechst-33258 staining; assay type: functional, cell-based
compound,measurement,setting,value
COCc1ccc(C2=Cc3nc2ccc2[nH]c(cc2-c2ccc(C[n+]4ccccc4)cc2)c2nc(ccc4[nH]c3cc4-c3ccc(C[n+]4ccccc4)cc3)C(c3ccc(C[n+]4ccccc4)cc3)=C2)cc1.[Br-].[Br-].[Br-],Activity,HeLa [1],Active
same,Activity,HeLa [2],Active
same,Activity,HeLa [3],Active
same,Activity,HeLa [4],Non-toxic
same,Activity,HeLa [5],Active
same,Activity,HeLa [6],Active
same,viability at 18 h,[7],> 90%
same,viability at 0.5 µM,HeLa [8],72%
same,Activity,HeLa [9],Active
same,Activity,HeLa [10],70%
same,Activity,HeLa [11],Non-toxic
same,Activity,HeLa [12],Active
same,Activity,HeLa [13],Non-toxic
same,viability at 18 h,[14],100%
same,Activity,HeLa [15],<10%
same,Activity,HeLa [16],Active
same,Drug uptake,HeLa [17],Active
same,Activity,HeLa [18],Active
same,viability at 18 h,[19],98.6%
same,Activity,HeLa [20],Active
same,Activity,HeLa [21],Active
same,Activity,HeLa [22],Active
same,Activity,HeLa [23],Active
same,Activity,HeLa [24],Toxic
same,Activity,HeLa [25],Non-toxic
same,Activity,HeLa [26],Active
same,Activity,HeLa [27],Active
same,Activity,HeLa [28],Active
same,Activity,HeLa [29],Active
same,Activity,HeLa [30],Active
same,Activity,HeLa [31],Active
same,Activity,HeLa [32],Active
